Experimental data as given in ChEMBL document CHEMBL6083256, “Design, synthesis and biological evaluation of novel oxazole derivatives as potential hypoglycemic agents” (Bioorg Med Chem, 2024).

Tests used:
[1] = system: HepG2; experiment: Induction of glucose consumption in starved human HepG2 cells assessed as fold increase in activity at 20 uM incubated for 24 hrs relative to control; assay type: functional
[2] = system: Mus musculus; experiment: Hypoglycemic activity in overnight-fasted C57BL/6J mouse assessed as reduction in blood glucose level at 80 mg/kg, ip pretreated for 30 mins followed by glucose administration measured upto 120 mins by OGTT analysis; assay type: functional, organism-based; conditions: time 150.0 min
[3] = system: 3T3-L1; experiment: Induction of glucose consumption in starved mouse 3T3-L1 cells incubated for 24 hrs; assay type: functional, cell-based; conditions: dose 1-25 µM
[4] = biological target: CYP2C9 (Homo sapiens, UniProt P11712); experiment: Inhibition of CYP2C9 in human liver microsomes at 10 uM relative to control; assay type: ADME, Microsome
[5] = biological target: CYP2D6 (Homo sapiens, UniProt P10635); experiment: Inhibition of CYP2D6 in human liver microsomes at 10 uM relative to control; assay type: ADME, Microsome
[6] = Cytotoxicity against human HepG2 cells incubated for 72 hrs by CCK8 assay; assay type: toxicity, cell-based
[7] = system: HepG2; experiment: Induction of glucose consumption in starved human HepG2 cells incubated for 24 hrs; assay type: functional, cell-based; conditions: dose 1-25 µM
[8] = biological target: T1, CYP1A2 (Homo sapiens, UniProt P05177); experiment: Inhibition of CYP1A2 in human liver microsomes at 10 uM relative to control; assay type: ADME, Microsome
T1 sequence (P05177 whole entry): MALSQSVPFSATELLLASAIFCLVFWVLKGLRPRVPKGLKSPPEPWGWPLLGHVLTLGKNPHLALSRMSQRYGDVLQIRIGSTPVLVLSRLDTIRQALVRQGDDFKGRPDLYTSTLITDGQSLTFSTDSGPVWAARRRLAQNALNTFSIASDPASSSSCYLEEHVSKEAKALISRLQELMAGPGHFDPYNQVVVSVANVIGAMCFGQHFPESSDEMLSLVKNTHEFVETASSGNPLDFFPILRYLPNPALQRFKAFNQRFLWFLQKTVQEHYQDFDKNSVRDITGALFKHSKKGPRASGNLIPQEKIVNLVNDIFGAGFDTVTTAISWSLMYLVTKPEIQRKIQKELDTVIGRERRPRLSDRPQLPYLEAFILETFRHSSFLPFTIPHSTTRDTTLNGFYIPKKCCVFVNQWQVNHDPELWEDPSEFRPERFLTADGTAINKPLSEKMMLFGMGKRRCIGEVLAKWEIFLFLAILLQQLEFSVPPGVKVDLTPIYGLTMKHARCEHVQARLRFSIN

[9] = system: 3T3-L1; experiment: Cytotoxicity against mouse 3T3-L1 cells assessed as change in cell morphology at 3.125 to 100 uM incubated for 72 hrs; assay type: toxicity, cell-based; conditions: 3t3-l1, 72 h, dose 3.125-100 µM
[10] = system: HepG2; experiment: Cytotoxicity against human HepG2 cells at 25 uM incubated for 72 hrs by CCK8 assay; assay type: toxicity, cell-based; conditions: hepg2, 72 h
[11] = biological target: CYP2C19 (Homo sapiens, UniProt P33261); experiment: Inhibition of CYP2C19 in human liver microsomes at 10 uM relative to control; assay type: ADME, Microsome
[12] = system: 3T3-L1; experiment: Cytotoxicity against mouse 3T3-L1 cells at 25 uM incubated for 72 hrs by CCK8 assay; assay type: toxicity, cell-based; conditions: 3t3-l1, 72 h
[13] = biological target: AMP-activated protein kinase, AMPK (Homo sapiens) (UniProt P54646+O43741+P54619+Q9UGJ0+Q9Y478+Q13131+Q9UGI9); experiment: Induction of AMPK phosphorylation at Thr172 in human HepG2 cells incubated for 24 hrs by Western blot analysis; assay type: cell-based; conditions: filed as activator
[14] = Cytotoxicity against mouse 3T3-L1 cells incubated for 72 hrs by CCK8 assay; assay type: toxicity, cell-based
[15] = system: HepG2; experiment: Cytotoxicity against human HepG2 cells assessed as change in cell morphology at 3.125 to 100 uM incubated for 72 hrs; assay type: toxicity, cell-based; conditions: hepg2, 72 h, dose 3.125-100 µM
[16] = biological target: CYP3A4 (Homo sapiens, UniProt P08684); experiment: Inhibition of CYP3A4 in human liver microsomes at 10 uM relative to control; assay type: ADME, Microsome
[17] = system: HepG2; experiment: Induction of glucose consumption in starved human HepG2 cells assessed as fold increase in activity at 2 mM incubated for 24 hrs relative to control; assay type: functional
[18] = system: HepG2; experiment: Cytotoxicity against human HepG2 cells at 100 uM incubated for 72 hrs by CCK8 assay; assay type: toxicity, cell-based; conditions: hepg2, 72 h
[19] = system: 3T3-L1; experiment: Cytotoxicity against mouse 3T3-L1 cells at 100 uM incubated for 72 hrs by CCK8 assay; assay type: toxicity, cell-based; conditions: 3t3-l1, 72 h

Chain of CYP3A4 (P08684 whole entry): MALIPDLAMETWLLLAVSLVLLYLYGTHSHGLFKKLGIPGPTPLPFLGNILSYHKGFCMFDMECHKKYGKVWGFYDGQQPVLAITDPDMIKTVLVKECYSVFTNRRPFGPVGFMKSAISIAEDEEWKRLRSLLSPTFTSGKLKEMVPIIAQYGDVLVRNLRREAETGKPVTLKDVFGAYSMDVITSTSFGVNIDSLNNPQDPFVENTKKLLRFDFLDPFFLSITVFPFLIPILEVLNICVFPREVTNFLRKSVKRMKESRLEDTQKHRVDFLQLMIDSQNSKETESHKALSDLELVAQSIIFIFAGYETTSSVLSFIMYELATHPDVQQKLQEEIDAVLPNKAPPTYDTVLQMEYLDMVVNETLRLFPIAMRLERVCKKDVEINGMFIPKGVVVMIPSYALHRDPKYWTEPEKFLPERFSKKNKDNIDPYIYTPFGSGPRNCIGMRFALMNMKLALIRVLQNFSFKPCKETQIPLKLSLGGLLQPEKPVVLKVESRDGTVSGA
Chain of CYP2D6 (P10635 whole entry): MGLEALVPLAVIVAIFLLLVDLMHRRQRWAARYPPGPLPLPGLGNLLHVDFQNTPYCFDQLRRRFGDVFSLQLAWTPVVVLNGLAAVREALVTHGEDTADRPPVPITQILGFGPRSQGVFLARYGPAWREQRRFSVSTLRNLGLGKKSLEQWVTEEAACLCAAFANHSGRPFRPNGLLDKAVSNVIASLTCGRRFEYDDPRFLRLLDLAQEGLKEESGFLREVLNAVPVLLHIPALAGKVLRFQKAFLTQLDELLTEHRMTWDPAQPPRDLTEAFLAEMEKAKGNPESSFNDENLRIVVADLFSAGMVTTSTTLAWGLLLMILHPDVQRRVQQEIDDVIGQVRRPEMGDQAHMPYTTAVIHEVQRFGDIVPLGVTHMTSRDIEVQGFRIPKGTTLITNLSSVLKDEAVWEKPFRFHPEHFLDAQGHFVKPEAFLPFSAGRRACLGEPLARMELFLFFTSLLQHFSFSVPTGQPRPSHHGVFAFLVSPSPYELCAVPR
Chain of CYP2C9 (P11712 whole entry): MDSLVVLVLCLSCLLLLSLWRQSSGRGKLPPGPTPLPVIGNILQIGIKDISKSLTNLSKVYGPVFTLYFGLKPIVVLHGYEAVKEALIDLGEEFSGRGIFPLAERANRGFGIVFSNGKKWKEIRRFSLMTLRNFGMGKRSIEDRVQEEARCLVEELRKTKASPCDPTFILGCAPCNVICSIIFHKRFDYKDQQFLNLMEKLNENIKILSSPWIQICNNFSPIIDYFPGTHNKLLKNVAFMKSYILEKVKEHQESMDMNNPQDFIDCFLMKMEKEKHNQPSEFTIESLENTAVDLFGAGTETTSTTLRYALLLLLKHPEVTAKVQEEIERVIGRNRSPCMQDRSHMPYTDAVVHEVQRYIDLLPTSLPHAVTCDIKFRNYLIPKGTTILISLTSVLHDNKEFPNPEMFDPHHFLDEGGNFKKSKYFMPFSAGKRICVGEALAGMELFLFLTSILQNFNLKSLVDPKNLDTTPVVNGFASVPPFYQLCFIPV
Chain of CYP2C19 (P33261 whole entry): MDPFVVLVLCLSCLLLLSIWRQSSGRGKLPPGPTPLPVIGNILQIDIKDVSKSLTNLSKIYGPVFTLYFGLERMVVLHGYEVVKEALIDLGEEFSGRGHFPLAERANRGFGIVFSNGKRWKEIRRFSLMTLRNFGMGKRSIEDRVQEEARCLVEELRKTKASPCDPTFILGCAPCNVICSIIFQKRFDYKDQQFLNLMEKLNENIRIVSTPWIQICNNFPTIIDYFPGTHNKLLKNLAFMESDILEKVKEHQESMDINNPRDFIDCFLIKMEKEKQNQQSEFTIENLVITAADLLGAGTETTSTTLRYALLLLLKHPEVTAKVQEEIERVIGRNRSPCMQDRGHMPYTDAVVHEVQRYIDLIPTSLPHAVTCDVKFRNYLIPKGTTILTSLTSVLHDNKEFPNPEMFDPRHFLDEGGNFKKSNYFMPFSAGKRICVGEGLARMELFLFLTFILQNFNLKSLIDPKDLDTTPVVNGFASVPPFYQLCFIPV

SMILES: FC(F)(F)c1ccc(-c2nc(CN3CCOCC3)co2)cc1
- fold change (FC) [1]: 1.52

SMILES: COCC1CCN(Cc2coc(-c3ccc(C(F)(F)F)cc3)n2)CC1
- fold change (FC) [1]: 1.2

SMILES: COC(=O)C1CCN(Cc2coc(-c3ccc(C(F)(F)F)cc3)n2)CC1
- fold change (FC) [1]: 1.6
- Activity [2]: Active; Exhibited Strongest Activity Than Other Tested Compounds
- Activity [3]: Dose-dependent-effect
- inhibition at 10 µM [4]: 5.8%
- inhibition at 10 µM [5]: 4.6%
- IC50 at 72 h [6]: > 100 µM
- Activity [7]: Dose-dependent-effect
- inhibition at 10 µM [8]: 16.2%
- Activity [9]: Non-toxic
- Activity [10]: Non-toxic
- inhibition at 10 µM [11]: 21.7%
- Activity [12]: Non-toxic
- Activity [13]: Dose-dependent-effect
- IC50 at 72 h [14]: > 100 µM
- Activity [15]: Non-toxic
- inhibition at 10 µM [16]: 2.1%

SMILES: OCC1CCN(Cc2coc(-c3cccc(Cl)c3)n2)CC1
- fold change (FC) [1]: 1.05

SMILES: COC1CCCN(Cc2coc(-c3ccc(C(F)(F)F)cc3)n2)C1 (configuration not stated)
- fold change (FC) [1]: 1.05

SMILES: COc1ccc(-c2nc(CN3CCC(CO)CC3)co2)cc1
- fold change (FC) [1]: 1.05

SMILES: OCC1CCN(Cc2coc(-c3ccc(C(F)(F)F)cc3)n2)CC1
- fold change (FC) [1]: 1.43

SMILES: OC1CCCN(Cc2coc(-c3ccc(C(F)(F)F)cc3)n2)C1 (configuration not stated)
- fold change (FC) [1]: 1.49

SMILES: CN1CCN(Cc2coc(-c3ccc(C(F)(F)F)cc3)n2)CC1
- fold change (FC) [1]: 1.5

SMILES: OCC1CCN(Cc2coc(-c3cccc(F)c3)n2)CC1
- fold change (FC) [1]: 1.12

SMILES: CC(C)(C)OC(=O)N1CCN(Cc2coc(-c3ccc(C(F)(F)F)cc3)n2)CC1
- fold change (FC) [1]: 1.46

SMILES: Cc1ccc(-c2nc(CN3CCC(CO)CC3)co2)cc1
- fold change (FC) [1]: 1.39

SMILES: OCC1CCN(Cc2coc(-c3ccc(F)cc3)n2)CC1
- fold change (FC) [1]: 1.27

SMILES: OC1CCN(Cc2coc(-c3ccc(C(F)(F)F)cc3)n2)CC1
- fold change (FC) [1]: 1.42

SMILES: CS(=O)(=O)C1CCN(Cc2coc(-c3ccc(C(F)(F)F)cc3)n2)CC1
- fold change (FC) [1]: 1.39

SMILES: COC1CCN(Cc2coc(-c3ccc(C(F)(F)F)cc3)n2)CC1
- fold change (FC) [1]: 1.61
- Activity [2]: Not active; Exhibited Weak Activity
- Activity [3]: Dose-dependent-effect
- IC50 at 72 h [6]: > 100 µM
- Activity [7]: Dose-dependent-effect
- Activity [9]: Non-toxic
- Activity [10]: Non-toxic
- Activity [12]: Non-toxic
- IC50 at 72 h [14]: > 100 µM
- Activity [15]: Non-toxic

SMILES: CCOC1CCN(Cc2coc(-c3ccc(C(F)(F)F)cc3)n2)CC1
- fold change (FC) [1]: 1.42

SMILES: OCC1CCCN(Cc2coc(-c3ccc(C(F)(F)F)cc3)n2)C1 (configuration not stated)
- fold change (FC) [1]: 1.42

SMILES: OCC1CCN(Cc2coc(-c3cc(F)cc(F)c3)n2)CC1
- fold change (FC) [1]: 0.95

SMILES: CN(C)C(=N)NC(=N)N [METFORMIN]
- fold change (FC) [17]: 1.57

SMILES: CCOC(=O)C1CCN(Cc2coc(-c3ccc(C(F)(F)F)cc3)n2)CC1
- fold change (FC) [1]: 1.34

SMILES: CS(=O)(=O)N1CCN(Cc2coc(-c3ccc(C(F)(F)F)cc3)n2)CC1
- fold change (FC) [1]: 1.63
- Activity [2]: Not active; Exhibited Minimal Activity
- Activity [3]: Dose-dependent-effect
- IC50 at 72 h [6]: > 100 µM
- Activity [7]: Dose-dependent-effect
- Activity [9]: Non-toxic
- Activity [10]: Non-toxic
- Activity [12]: Non-toxic
- IC50 at 72 h [14]: > 100 µM
- Activity [15]: Non-toxic

SMILES: OCC1CCN(Cc2coc(-c3cccc(C(F)(F)F)c3)n2)CC1
- fold change (FC) [1]: 1.4

SMILES: OCC1CCN(Cc2coc(-c3ccccc3)n2)CC1
- fold change (FC) [1]: 1.36

SMILES: NC1CCN(Cc2coc(-c3ccc(C(F)(F)F)cc3)n2)CC1
- fold change (FC) [1]: 1.6
- Activity [2]: Not active; Exhibited Minimal Activity
- Activity [3]: Dose-dependent-effect
- Activity [18]: Toxic
- Activity [7]: Dose-dependent-effect
- Activity [19]: Toxic

SMILES: Cc1cccc(-c2nc(CN3CCC(CO)CC3)co2)c1
- fold change (FC) [1]: 1.25

SMILES: COc1cccc(-c2nc(CN3CCC(CO)CC3)co2)c1
- fold change (FC) [1]: 1.27

SMILES: CC(=O)N1CCN(Cc2coc(-c3ccc(C(F)(F)F)cc3)n2)CC1
- fold change (FC) [1]: 1.21

SMILES: OCC1CCN(Cc2coc(-c3ccc(Cl)cc3)n2)CC1
- fold change (FC) [1]: 1.24
